Test results reported in patent publication US11992494B2, “Cyclopentathiophene carboxamide derivatives as platelet activating factor receptor antagonists” (Boehringer Ingelheim International GmbH, priority 2021, dated 2024).

What follows are compounds tested against PAFR (Homo sapiens, UniProt P25105) (assay: cellular HTRF IP1 assay: inhibition of PAFR activation by PAF C-16 ligand (endpoint assay)). Conditions: HEK293 cells overexpressing human PAFR; PAF ligand 11 nM; Table 2.
Type: cell-based
Design: expressed in transfected cells; host or cells: HEK293
Protocol: The ability of compounds of formula (I) to inhibit the activation of the PAF receptor (PAFR) by the PAF C-16 ligand (PAF) is determined using the following cellular HTRF IP1 assay (IP1 Gq assay kit from Cisbio, Cat. no.: 62IP1APEJ) in assay buffer (1×HBSS, 20 mM Hepes, pH 7.4, 50 mM LiCl and containing 0.1% (w/v) BSA):
Evaluation of the Inhibition of PAFR Activation Using an Endpoint Assay
HEK293 cells overexpressing human PAFR (produced in-house) are seeded into a Poly-D-Lysine coated 384 well white cell culture microtiter assay plate with lid (15.000 cells per well). Subsequently, the plates are incubated over night at 37° C./5% CO2. On the next day, cells are being washed and subsequently, various concentrations of the test compounds (compounds in 100% DMSO; final concentration of DMSO in wells is 1%) are added to the assay plate via Echo 555 acoustic liquid handler. Plates are then incubated with lid for 90 minutes at 37° C./5% CO2. Thereafter, PAF ligand (Cayman Chemical Company, Item no.: 60900) is added at a final concentration of 11 nM. Plates are then incubated with lid for 60 minutes at 37° C./5% CO2. Then, 5 μl per well of Anti-IP1-Antibody-Cryptate solution and 5 μl per well of IP1-d2 solution are added to all wells of the plate and the plate is incubated for another 60 minutes light protected at room temperature. The emissions at 620 nm and 665 nm (Excitation wavelength: 320 nm) are measured using an Envision Reader (PerkinElmer).

Sequence of PAFR (P25105 whole entry): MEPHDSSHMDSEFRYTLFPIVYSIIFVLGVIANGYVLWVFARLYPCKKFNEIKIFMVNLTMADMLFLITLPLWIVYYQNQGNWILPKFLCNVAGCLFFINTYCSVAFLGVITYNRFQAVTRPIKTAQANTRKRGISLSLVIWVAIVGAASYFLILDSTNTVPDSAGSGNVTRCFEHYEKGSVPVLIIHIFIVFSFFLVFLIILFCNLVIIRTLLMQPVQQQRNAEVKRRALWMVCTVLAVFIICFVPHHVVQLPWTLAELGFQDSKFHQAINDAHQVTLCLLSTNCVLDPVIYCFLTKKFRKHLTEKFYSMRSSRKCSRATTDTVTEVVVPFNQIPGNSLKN

Row | SMILES | IC50 [nM]
1 | Cc1nnc2n1-c1sc3c(c1C(c1ccccc1Cl)=NC21CC1)C[C@H](C(=O)NCCOC(F)(F)F)C3 [Example 67] | 1.7
2 | Cc1nnc2n1-c1sc3c(c1C(c1ccccc1Cl)=NC21CC1)C[C@H](C(=O)NC1CCCC(F)(F)C1)C3 (some centres unmarked) [Example 25] | 2.3
3 | Cc1nnc2n1-c1sc3c(c1C(c1ccccc1O)=NC21CC1)C[C@H](C(=O)N1CCOCC1)C3 [Example 9, 2-[(13′S)-3′-methyl-13′-(morpholine-4-carbonyl)-16′-thia-2′,4′,5′,8′-tetraazaspiro[cyclopropane-1,7′-tetracyclo[8.6.0.0^2,6.0^11,15]hexadecane]-1′(10′),3′,5′,8′,11′(15′)-pentaen-9′-yl]phenol] | 52
4 | Cc1nnc2n1-c1sc3c(c1C(c1ccccc1Cl)=NC21CC1)C[C@H](C(=O)N1CC(C)(C)C1)C3 [Example 65] | 2.8
5 | Cc1nnc2n1-c1sc3c(c1C(c1ccccc1Cl)=NC21CC1)C[C@H](C(=O)NC1CC2(CCC2)C1)C3 [Example 80] | 2
6 | Cc1nnc2n1-c1sc3c(c1C(c1ccccc1Cl)=NC21CC1)C[C@H](C(=O)NC1CCCS(=O)(=O)C1)C3 (stereo partly drawn) [Example 121, (13′S)-9′-(2-chlorophenyl)-N-(1,1-dioxo-1lambda6-thian-3-yl)-3′-methyl-16′-thia-2′,4′,5′,8′-tetraazaspiro[cyclopropane-1,7′-tetra-cyclo[8.6.0.0^2,6.0^11,15]hexadecane]-1′(10′),3′,5′,8′,11′(15′)-pentaene-13′-carboxamide] | 30
7 | Cc1nnc2n1-c1sc3c(c1C(c1ccccc1Cl)=NC21CC1)C[C@H](C(=O)N[C@H]1CCCOC1)C3 [Example 29] | 8.4
8 | Cc1nnc2n1-c1sc3c(c1C(c1ccccc1Cl)=NC21CC1)C[C@H](C(=O)NC1COCC(F)(F)C1)C3 (some centres unmarked) [Example 43] | 3.7
9 | Cc1nnc2n1-c1sc3c(c1C(c1ccccc1Cl)=NC21CC1)C[C@H](C(=O)N(C)C1CCCCC1)C3 [Example 44] | 1.3
10 | Cc1nnc2n1-c1sc3c(c1C(c1ccccc1Cl)=NC21CC1)C[C@H](C(=O)N[C@H]1C[C@@H]1c1ccccc1)C3 [Example 17] | 1.2
11 | CCC12CC(NC(=O)[C@@H]3Cc4sc5c(c4C3)C(c3ccccc3Cl)=NC3(CC3)c3nnc(C)n3-5)(C1)C2 [Example 109] | 1.1
12 | CC(=O)N1CCC(N(C)C(=O)[C@@H]2Cc3sc4c(c3C2)C(c2ccccc2Cl)=NC2(CC2)c2nnc(C)n2-4)CC1 [Example 73] | 21
13 | Cc1nnc2n1-c1sc3c(c1C(c1ccccc1Cl)=NC21CC1)C[C@H](C(=O)N[C@H]1COC[C@H]1c1ccccc1)C3 [Example 39] | 3.1
14 | Cc1nnc2n1-c1sc3c(c1C(c1ccccc1Cl)=NC21CC1)C[C@H](C(=O)N[C@H]1CCN(c2ncccn2)C1)C3 [Example 62] | 6.5
15 | Cc1nnc2n1-c1sc3c(c1C(c1ccccc1Cl)=NC21CC1)C[C@H](C(=O)N[C@H]1CC[C@H](C(F)(F)F)CC1)C3 [Example 15] | 1
16 | Cc1nnc2n1-c1sc3c(c1C(c1ccccc1Cl)=NC21CC1)C[C@H](C(=O)NC1CCC12CCOCC2)C3 (some centres unmarked) [Example 64] | 8.6
17 | Cc1nnc2n1-c1sc3c(c1C(c1ccccc1Cl)=NC21CC1)C[C@H](C(=O)NC1(c2ccccc2)CC1)C3 [Example 46] | 2
18 | Cc1nnc2n1-c1sc3c(c1C(c1ccccc1Cl)=NC21CC1)C[C@H](C(=O)NC1Cc2ccccc2C1)C3 [Example 31] | 0.9
19 | Cc1nnc2n1-c1sc3c(c1C(c1ccccc1Cl)=NC21CC1)C[C@H](C(=O)N[C@H]1CCc2ccccc2C1)C3 [Example 58] | 0.4
20 | Cc1nnc2n1-c1sc3c(c1C(c1ccccc1Cl)=NC21CC1)C[C@H](C(=O)NC1CCC(F)(F)CC1)C3 [Example 118] | 2.8
21 | Cc1nnc2n1-c1sc3c(c1C(c1ccccc1Cl)=NC21CC1)C[C@H](C(=O)N[C@H]1CC[C@H](C(F)F)CC1)C3 [Example 76] | 1.9

Row | SMILES | IC50 [nM]
22 | Cc1nnc2n1-c1sc3c(c1C(c1ccccc1Cl)=NC21CC1)C[C@H](C(=O)NC1CCOC(C)(C)C1)C3 (some centres unmarked) [Example 33] | 11
23 | Cc1nnc2n1-c1sc3c(c1C(c1ccccc1Cl)=NC21CC1)C[C@H](C(=O)NC1CCOCC1)C3 [Example 51] | 12
24 | Cc1nnc2n1-c1sc3c(c1C(c1ccccc1Cl)=NC21CC1)C[C@H](C(=O)N(C)[C@H]1CCN(S(C)(=O)=O)C1)C3 [Example 111, (13′S)-9′-(2-chlorophenyl)-N-[(3S)-1-methanesulfonylpyrrolidin-3-yl]-N,3′-dimethyl-16′-thia-2′,4′,5′,8′-tetraazaspiro[cyclopropane-1,7′-tetracyclo[8.6.0.0^2,^6.0^11,15]hexadecane]-1′(10′),3′,5′,8′,11′(15′)-pentaene-13′-carboxamide] | 24
25 | Cc1nnc2n1-c1sc3c(c1C(c1ccccc1Cl)=NC21CC1)C[C@H](C(=O)N[C@@H]1c2ccccc2C[C@@H]1O)C3 [Example 50] | 2.4
26 | Cc1nnc2n1-c1sc3c(c1C(c1ccccc1Cl)=NC21CC1)C[C@H](C(=O)N[C@@H](C)CF)C3 [Example 125] | 5.8
27 | Cc1nnc2n1-c1sc3c(c1C(c1ccccc1Cl)=NC21CC1)C[C@H](C(=O)NC1COc2ccccc21)C3 (some centres unmarked) [Example 55] | 1.4
28 | Cc1nnc2n1-c1sc3c(c1C(c1cc(Br)ccc1Cl)=NC21CC1)C[C@H](C(=O)N1CCOCC1)C3 [Example 4, (13′S)-9′-(5-bromo-2-chlorophenyl)-3′-methyl-13′-(morpholine-4-carbonyl)-16′-thia-2′,4′,5′,8′-tetraazaspiro[cyclopropane-1,7′-tetracyclo[8.6.0.0^2,6.0^11,15]hexadecane]-1′(10′)3′,5′,8′,11′(15′)-pentaene] | 26
29 | Cc1nnc2n1-c1sc3c(c1C(c1ccccc1Cl)=NC21CC1)C[C@H](C(=O)N[C@H]1CC[C@@H](F)CC1)C3 [Example 36] | 3.5
30 | Cc1nnc2n1-c1sc3c(c1C(c1ccccc1Cl)=NC21CC1)C[C@H](C(=O)N[C@@H]1COC[C@@H]1C)C3 [Example 30] | 7.2
31 | Cc1nnc2n1-c1sc3c(c1C(c1ccccc1Cl)=NC21CC1)C[C@H](C(=O)N1CCC(F)(F)C1)C3 [Example 105, (13′S)-9′-(2-chlorophenyl)-13′-(3,3-difluoro-pyrrolidine-1-carbonyl)-3′-methyl-16′-thia-2′,4′,5′,8′-tetraazaspiro[cyclopropane-1,7′-tetracyclo[8.6.0.0^2,6.0^11,15]hexadecane]-1′(10′),3′,5′,8′,11′(15′)-pentaene] | 3.6
32 | Cc1nnc2n1-c1sc3c(c1C(c1ccccc1Cl)=NC21CC1)C[C@H](C(=O)NC1[C@H]2CCC[C@@H]12)C3 (some centres unmarked) [Example 19] | 1.6
33 | CCn1ncc2c1CC[C@H](NC(=O)[C@@H]1Cc3sc4c(c3C1)C(c1ccccc1Cl)=NC1(CC1)c1nnc(C)n1-4)C2 [Example 100] | 22
34 | Cc1nnc2n1-c1sc3c(c1C(c1ccccc1Cl)=NC21CC1)C[C@H](C(=O)N[C@H]1COC[C@H]1C(C)C)C3 [Example 88] | 5.1
35 | CCN(C(=O)[C@@H]1Cc2sc3c(c2C1)C(c1ccccc1Cl)=NC1(CC1)c1nnc(C)n1-3)[C@H]1CC[C@H](O)CC1 [Example 20] | 11
36 | Cc1nnc2n1-c1sc3c(c1C(c1ccccc1Cl)=NC21CC1)C[C@H](C(=O)N1C[C@@H](C)O[C@@H](C)C1)C3 [Example 13] | 4.8
37 | Cc1nnc2n1-c1sc3c(c1C(c1ccccc1Cl)=NC21CC1)C[C@H](C(=O)N[C@H]1CCOC1)C3 [Example 78] | 15
38 | Cc1ccccc1C1=NC2(CC2)c2nnc(C)n2-c2sc3c(c21)C[C@H](C(=O)N1CCOCC1)C3 [Example 8, (13′S)-3′-methyl-9′-(2-methylphenyl)-13′-(morpholine-4-carbonyl)-16′-thia-2′,4′,5′,8′-tetraazaspiro[cyclopropane-1,7′-tetracyclo[8.6.0.0^2,6.0^11,15]hexadecane]-1′(10′),3′,5′,8′,11′(15′)-pentaene] | 8.4
39 | Cc1nnc2n1-c1sc3c(c1C(c1ccccc1Cl)=NC21CC1)C[C@H](C(=O)N[C@H]1CCC(F)(F)C1)C3 [Example 24] | 2
40 | CCOC(=O)N1CCC(N(C)C(=O)[C@@H]2Cc3sc4c(c3C2)C(c2ccccc2Cl)=NC2(CC2)c2nnc(C)n2-4)CC1 [Example 72] | 4.9
41 | CCCNC(=O)[C@@H]1Cc2sc3c(c2C1)C(c1ccccc1Cl)=NC1(CC1)c1nnc(C)n1-3 [Example 66] | 2.4
42 | Cc1nnc2n1-c1sc3c(c1C(c1ccccc1Cl)=NC21CC1)C[C@H](C(=O)N[C@H]1COCC(F)(F)C1)C3 [Example 116] | 3.9

Same assay, conditions: dedicated head-to-head comparison assay run: cyclopropylene vs di-methyl / cyclobutylene analogues

Row | SMILES | IC50 [nM]
43 | Cc1nnc2n1-c1sc3c(c1C(c1ccccc1Cl)=NC2(C)C)C[C@H](C(=O)N[C@@H]1CCC(F)(F)C1)C3 [reference compound] | 7.7
44 | Cc1nnc2n1-c1sc3c(c1C(c1ccccc1Cl)=NC2(C)C)C[C@H](C(=O)NC1(c2ccccn2)CC1)C3 [reference compound] | 26
45 | Cc1nnc2n1-c1sc3c(c1C(c1ccccc1Cl)=NC21CC1)C[C@H](C(=O)NC1CCOCC1)C3 [Example 51] | 9.7
46 | Cc1noc(C)c1NC(=O)[C@@H]1Cc2sc3c(c2C1)C(c1ccccc1Cl)=NC(C)(C)c1nnc(C)n1-3 [reference compound] | 39
47 | CCCNC(=O)[C@@H]1Cc2sc3c(c2C1)C(c1ccccc1Cl)=NC1(CC1)c1nnc(C)n1-3 [Example 66] | 2.3
